Columns and labels:
Test in all cases: relative viability (nuclei count vs DMSO), 5 days (fraction); higher = more cells survive
NCI-H1563 = test system: NCI-H1563
How it was run: (§1)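 Relative viability was taken as the ratio of nuclei in treated wells to nuclei in vehicle wells. Lung cancer cell lines in 1536-well plates received compounds by pin tool one day after seeding, either one drug alone or a fixed anchor-drug dose plus five library-drug doses (not always all listed) in √10 steps. Nuclei were counted on 4× images after 5 days of treatment, and values are medians of duplicate plates.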

NCI-H1666 = test system: NCI-H1666
How it was run: as §1

NCI-H1755 = test system: NCI-H1755
How it was run: as §1

NCI-H1650 = test system: NCI-H1650
How it was run: as §1

NCI-H650 = test system: NCI-H650
How it was run: as §1

A549 = test system: A549
How it was run: as §1

IA-LM = test system: IA-LM
How it was run: as §1

NCI-H1299 = test system: NCI-H1299
How it was run: as §1

EBC-1 = test system: EBC-1
How it was run: as §1

NCI-H1703 = test system: NCI-H1703
How it was run: as §1

Calu-6 = test system: Calu-6
How it was run: as §1

Oc1nc(-c2ccc(C(F)(F)F)cc2)nc2c1CSCC2 [XAV939] + Nc1nc2[nH]cc(CCc3ccc(C(=O)N[C@@H](CCC(=O)O)C(=O)O)cc3)c2c(=O)[nH]1 [Pemetrexed] (partner 0.2 µM)
relative viability (NCI-H1563; first compound 0.08 µM): 0.823 | relative viability (NCI-H1563; first compound 0.253 µM): 0.685 | relative viability (NCI-H1563; first compound 0.8 µM): 0.659 | relative viability (NCI-H1563; first compound 2.53 µM): 0.47 | relative viability (NCI-H1666; first compound 0.08 µM): 0.822 | relative viability (NCI-H1666; first compound 0.253 µM): 0.865 | relative viability (NCI-H1666; first compound 0.8 µM): 0.864 | relative viability (NCI-H1666; first compound 2.53 µM): 0.925 | relative viability (NCI-H1755; first compound 0.08 µM): 0.382 | relative viability (NCI-H1755; first compound 0.253 µM): 0.425 | relative viability (NCI-H1755; first compound 0.8 µM): 0.489 | relative viability (NCI-H1755; first compound 2.53 µM): 0.336 | relative viability (NCI-H1650; first compound 0.08 µM): 0.368 | relative viability (NCI-H1650; first compound 0.253 µM): 0.301 | relative viability (NCI-H1650; first compound 0.8 µM): 0.356 | relative viability (NCI-H1650; first compound 2.53 µM): 0.365 | relative viability (NCI-H650; first compound 0.08 µM): 0.973 | relative viability (NCI-H650; first compound 0.253 µM): 1 | relative viability (NCI-H650; first compound 0.8 µM): 0.96 | relative viability (NCI-H650; first compound 2.53 µM): 0.816

C=C1C(=O)O[C@@H](CCCCCCCC)[C@@H]1C(=O)O [C-75] + Nc1nc2[nH]cc(CCc3ccc(C(=O)N[C@@H](CCC(=O)O)C(=O)O)cc3)c2c(=O)[nH]1 [Pemetrexed] (partner 0.2 µM)
relative viability (NCI-H1563; first compound 0.08 µM): 0.8 | relative viability (NCI-H1563; first compound 0.253 µM): 0.915 | relative viability (NCI-H1563; first compound 0.8 µM): 0.753 | relative viability (NCI-H1563; first compound 2.53 µM): 0.666 | relative viability (NCI-H1563; first compound 8 µM): 0.924 | relative viability (NCI-H1666; first compound 0.08 µM): 0.882 | relative viability (NCI-H1666; first compound 0.253 µM): 0.828 | relative viability (NCI-H1666; first compound 0.8 µM): 0.815 | relative viability (NCI-H1666; first compound 8 µM): 0.796 | relative viability (NCI-H1755; first compound 0.08 µM): 0.457 | relative viability (NCI-H1755; first compound 0.253 µM): 0.468 | relative viability (NCI-H1755; first compound 0.8 µM): 0.46 | relative viability (NCI-H1755; first compound 2.53 µM): 0.391 | relative viability (NCI-H1755; first compound 8 µM): 0.438 | relative viability (NCI-H1650; first compound 0.08 µM): 0.365 | relative viability (NCI-H1650; first compound 0.253 µM): 0.401 | relative viability (NCI-H1650; first compound 0.8 µM): 0.384 | relative viability (NCI-H1650; first compound 8 µM): 0.372 | relative viability (NCI-H650; first compound 0.08 µM): 1.28 | relative viability (NCI-H650; first compound 0.253 µM): 0.888 | relative viability (NCI-H650; first compound 0.8 µM): 0.857 | relative viability (NCI-H650; first compound 2.53 µM): 0.823 | relative viability (NCI-H650; first compound 8 µM): 0.882

Oc1nc(-c2ccc(C(F)(F)F)cc2)nc2c1CSCC2 [XAV939] + Nc1ncn([C@H]2C[C@H](O)[C@@H](CO)O2)c(=O)n1 [Decitabine] (partner 2 µM)
relative viability (A549; first compound 0.08 µM): 0.291 | relative viability (A549; first compound 0.8 µM): 0.315 | relative viability (A549; first compound 2.53 µM): 0.228 | relative viability (NCI-H1666; first compound 0.08 µM): 0.747 | relative viability (NCI-H1666; first compound 0.253 µM): 0.674 | relative viability (NCI-H1666; first compound 0.8 µM): 0.678 | relative viability (NCI-H1666; first compound 2.53 µM): 0.531 | relative viability (NCI-H1755; first compound 0.08 µM): 0.693 | relative viability (NCI-H1755; first compound 0.253 µM): 0.677 | relative viability (NCI-H1755; first compound 0.8 µM): 0.72 | relative viability (NCI-H1755; first compound 2.53 µM): 0.691 | relative viability (NCI-H1650; first compound 0.08 µM): 0.407 | relative viability (NCI-H1650; first compound 0.253 µM): 0.445 | relative viability (NCI-H1650; first compound 0.8 µM): 0.361 | relative viability (NCI-H1650; first compound 2.53 µM): 0.439 | relative viability (NCI-H650; first compound 0.08 µM): 0.286 | relative viability (NCI-H650; first compound 0.253 µM): 0.305 | relative viability (NCI-H650; first compound 0.8 µM): 0.33 | relative viability (NCI-H650; first compound 2.53 µM): 0.325

Oc1nc(-c2ccc(C(F)(F)F)cc2)nc2c1CSCC2 [XAV939] + O=C(c1cc(Cc2n[nH]c(=O)c3ccccc23)ccc1F)N1CCN(C(=O)C2CC2)CC1 [Olaparib] (partner 8 µM)
relative viability (A549; first compound 0.08 µM): 0.357 | relative viability (A549; first compound 0.253 µM): 0.265 | relative viability (A549; first compound 0.8 µM): 0.246 | relative viability (A549; first compound 2.53 µM): 0.19 | relative viability (IA-LM; first compound 0.08 µM): 0.824 | relative viability (IA-LM; first compound 0.253 µM): 0.633 | relative viability (IA-LM; first compound 0.8 µM): 0.728 | relative viability (IA-LM; first compound 2.53 µM): 0.699 | relative viability (NCI-H1299; first compound 0.08 µM): 0.937 | relative viability (NCI-H1299; first compound 0.253 µM): 0.883 | relative viability (NCI-H1299; first compound 0.8 µM): 0.931 | relative viability (NCI-H1299; first compound 2.53 µM): 0.914 | relative viability (EBC-1; first compound 0.08 µM): 0.722 | relative viability (EBC-1; first compound 0.253 µM): 0.623 | relative viability (EBC-1; first compound 0.8 µM): 0.619 | relative viability (EBC-1; first compound 2.53 µM): 0.607 | relative viability (NCI-H1666; first compound 0.08 µM): 0.748 | relative viability (NCI-H1666; first compound 0.253 µM): 0.741 | relative viability (NCI-H1666; first compound 0.8 µM): 0.745 | relative viability (NCI-H1666; first compound 2.53 µM): 0.754 | relative viability (NCI-H1703; first compound 0.08 µM): 0.415 | relative viability (NCI-H1703; first compound 0.253 µM): 0.236 | relative viability (NCI-H1703; first compound 0.8 µM): 0.408 | relative viability (NCI-H1703; first compound 2.53 µM): 0.485 | relative viability (Calu-6; first compound 0.08 µM): 0.556 | relative viability (Calu-6; first compound 0.253 µM): 0.547 | relative viability (Calu-6; first compound 0.8 µM): 0.544 | relative viability (Calu-6; first compound 2.53 µM): 0.504 | relative viability (NCI-H1755; first compound 0.08 µM): 0.798 | relative viability (NCI-H1755; first compound 0.253 µM): 0.767 | relative viability (NCI-H1755; first compound 0.8 µM): 0.816 | relative viability (NCI-H1755; first compound 2.53 µM): 0.733 | relative viability (NCI-H1650; first compound 0.08 µM): 0.762 | relative viability (NCI-H1650; first compound 0.253 µM): 0.633 | relative viability (NCI-H1650; first compound 0.8 µM): 0.749 | relative viability (NCI-H1650; first compound 2.53 µM): 0.61 | relative viability (NCI-H650; first compound 0.08 µM): 0.413 | relative viability (NCI-H650; first compound 0.253 µM): 0.426 | relative viability (NCI-H650; first compound 0.8 µM): 0.47 | relative viability (NCI-H650; first compound 2.53 µM): 0.372
